pIC50: −log10 of the molar value.
Tested on: HCT-116
Experiment: Inhibitory activity against HCT116 tumor cell line
Format: functional, cell-based
Conditions: Homo sapiens

| pIC50 | Structure (SMILES) |
| --- | --- |
| 7.60 | CS(=O)(=O)OCCN(CCOS(C)(=O)=O)c1ccccc1 |
| 5.72 | CC(C)(C)[Si](C)(C)OCCN(CCO[Si](C)(C)C(C)(C)C)c1ccccc1 |
| 7.00 | CS(=O)(=O)OCCCN(CCCOS(C)(=O)=O)c1ccccc1 |

From ChEMBL document CHEMBL1128146, “Tricarbonyl 6 arene chromium (0) based antitumor agents” (Bioorg Med Chem Lett, 1995)
